According to ChEMBL document CHEMBL5226375, “Synthesis and Comprehensive in Vivo Activity Profiling of Olean-12-en-28-ol, 3β-Pentacosanoate in Experimental Autoimmune Encephalomyelitis: A Natural Remyelinating and Anti-Inflammatory Agent” (J Nat Prod, 2023):
Calls of active or inactive are those of the source. The rule behind the calls is not given here.

Experiments:
Mus musculus [1] = test: Anti-inflammatory activity against MOG35-55-induced experimental autoimmune encephalomyelitis C57BL/6 mouse model assessed as fold change in H2EB1 (HLA-DRB1) gene expression in brain at 300 mg/kg/day, ig for 14 days starting from 12th day of immunization by RT-qPCR analysis relative to control; assay type: functional; conditions: time 14 day
Mus musculus [2] = test: Anti-inflammatory activity against MOG35-55-induced experimental autoimmune encephalomyelitis C57BL/6 mouse model assessed as fold change in MAG gene expression in brain at 300 mg/kg/day, ig for 14 days starting from 12th day of immunization by RT-qPCR analysis relative to control; assay type: functional; conditions: time 14 day
Mus musculus [3] = test: Anti-inflammatory activity against MOG35-55-induced experimental autoimmune encephalomyelitis C57BL/6 mouse model assessed as fold change in CCL5 gene expression in brain at 300 mg/kg/day, ig for 14 days starting from 12th day of immunization by RT-qPCR analysis relative to control; assay type: functional; conditions: time 14 day
Mus musculus [4] = test: Anti-inflammatory activity against MOG35-55-induced experimental autoimmune encephalomyelitis C57BL/6 mouse model assessed as reduction in EAE symptoms by measuring neurological regeneration and behavioral impotence at 600 mg/kg/day, ig for 14 days starting from 12th day of immunization; assay type: functional, organism-based; conditions: time 14.0 day
Mus musculus [5] = test: Anti-inflammatory activity against MOG35-55-induced experimental autoimmune encephalomyelitis C57BL/6 mouse model assessed as proportion of brain infiltrating cells expressing CD45+/CD11b/c high surface markers at 600 mg/kg/day, ig for 14 days starting from 12th day of immunization by flow cytometry (reference value: 87.7%); assay type: functional; conditions: time 14 day
Mus musculus [6] = test: Anti-inflammatory activity against MOG35-55-induced experimental autoimmune encephalomyelitis C57BL/6 mouse model assessed as reduction in serum chemokines level by measuring reduction in CCL5 level at 600 mg/kg/day, ig for 14 days starting from 12th day of immunization by ELISA; assay type: functional, organism-based; conditions: time 14.0 day
Mus musculus [7] = test: Anti-inflammatory activity against MOG35-55-induced experimental autoimmune encephalomyelitis C57BL/6 mouse model assessed as reduction in serum monokines level by measuring reduction in IL-6 level at 600 mg/kg/day, ig for 14 days starting from 12th day of immunization by ELISA; assay type: functional, organism-based; conditions: time 14.0 day
Mus musculus [8] = test: Anti-inflammatory activity against MOG35-55-induced experimental autoimmune encephalomyelitis C57BL/6 mouse model assessed as fold change in STAT3 gene expression in brain at 0.15 mg/kg/day, ig for 14 days starting from 12th day of immunization by RT-qPCR analysis relative to control; assay type: functional; conditions: time 14 day
Mus musculus [9] = test: Anti-inflammatory activity against MOG35-55-induced experimental autoimmune encephalomyelitis C57BL/6 mouse model assessed as fold change in CCL5 gene expression in brain at 0.15 mg/kg/day, ig for 14 days starting from 12th day of immunization by RT-qPCR analysis relative to control; assay type: functional; conditions: time 14 day
Mus musculus [10] = test: Anti-inflammatory activity against MOG35-55-induced experimental autoimmune encephalomyelitis C57BL/6 mouse model assessed as methylation of CpG sites of CXCL14 gene promoter in brain at […], ig for 14 days starting from 12th day of immunization by PCR analysis (reference value: 46.5 +/-6%); assay type: functional; conditions: time 14 day

SMILES	fold change (FC) (Mus musculus [1])	fold change (FC) (Mus musculus [2])	fold change (FC) (Mus musculus [3])	Activity (Mus musculus [4])	Activity (Mus musculus [5])	Activity (Mus musculus [6])	Activity (Mus musculus [7])	fold change (FC) (Mus musculus [8])	fold change (FC) (Mus musculus [9])	Activity (Mus musculus [10])
CCCCCCCCCCCCCCCCCCCCCCCCC(=O)O[C@H]1CC[C@]2(C)[C@H]3CC=C4[C@@H]5CC(C)(C)CC[C@]5(CO)CC[C@@]4(C)[C@]3(C)CC[C@H]2C1(C)C	2.83	1.54	2.69	Active	66.2%	Active	Active			
CCCCCCCCc1ccc(CCC(N)(CO)CO)cc1 [FINGOLIMOD]								1.96	4.46	73.6%
